“Also recorded” adds a separate entry of the source.
Tests used:
beta-glucuronidase = conditions: cells, blood, urine, intestine (and liver); cited from earlier work
[1] = tested on: DMBA-induced mammary tumors; assay: DMBA-induced mammary tumor formation (chemoprevention), Example I; type: in vivo, female Sprague Dawley rats; conditions: for No. of Rats with Tumors / Total No. Tumors: 20 rats
Method: They were maintained on the diets for approximately 4 mos., and were examined (palpated) for mammary tumors weekly. […] The retinoid (HPR) was first dissolved in 25 ml of a vehicle consisting of ethanol-tricaprylin-6% α-tocopherol, then thoroughly mixed with powdered rat chow.

[2] = tested on: established DMBA-induced mammary tumors; assay: Growth of established DMBA-induced rat mammary tumors, Example II; type: in vivo, female Sprague Dawley rats; conditions: for increase of tumor size / decrease of mammary tumor size: 25 days; for increase of tumor size: controls 98%; for tumor growth: diets supplemented with low ineffective doses; for effect on tumor growth/development when fed separately: low (ineffective) dosages fed separately
Method: Louis, Mo.) in 1.0 ml of sesame oil, Abou-Issa et al., Proc. Natl. Acad. Sci. U.S.A., supra. […] Tumor sizes were measured in all the rats just before placing them on the following experimental diets (Groups I-VI): (I) rat chow (RMH 3200, Pro Lab, Syracuse, N.Y.); […] Natl. Acad. Sci. U.S.A., supra. The latter vehicle was added to the diet of all six groups. The additives were blended into the diet with a mechanical mixer. All the tumors that developed within the time frame of this example are histologically adenocarcinomas. This finding has been previously reported by Huggins et al., Mammary cancer induced by a single feeding of polynuclear hydrocarbons, and its suppression, Nature, 185:204-207 (1961), in this animal model under the same conditions, and has been confirmed in several indentical experiments. At later time periods beyond the time frame of this example fibroadenomas usually develop, Welsch et al., In "Cellular and Molecular Biology of Mammary Cancer", ([…] and E. Anderson, eds.) Plenum Press, N.Y. 1987, pp 163-179. Tumor measurements were began at the time the rats were placed on the experimental diets and were continued twice weekly throughout the duration of the experiment. Two axes were measured - the longest axis (L) and the axis at right angles to the longest (W), using a vernier caliper. […] Weights of the rats on the control and experimental diets were recorded weekly.

[3] = Body weight of rats, Example II; type: in vivo, female Sprague Dawley rats; conditions: for Final Weight: end of experiment; for Initial Weight: just before treatment
Method: Rat mammary tumors were induced by treating one hundred 50 day old female Sprague Dawley rats (Harlan Industries, Indianapolis, Ind.) by gavage with a single dose of 15 mg of 7,12-dimethylbenz(a)anthracene (Sigma Chemical Co., St. Louis, Mo.) in 1.0 ml of sesame oil, Abou-Issa et al., Proc. Natl. Acad. Sci. U.S.A., supra. The rats were maintained on a chow diet ad libitum until the tumors had formed in 70% of the rats and had reached a size of approximately 2.0 cm in diameter; 4 months later at which time they were randomized into six groups of 10 rats each. […] The latter vehicle was added to the diet of all six groups. The additives were blended into the diet with a mechanical mixer.
Tumor regression is indicated by at least 20% reduction in tumor size and each tumor is compared to its initial size on day zero. Weights of the rats on the control and experimental diets were recorded weekly.

Estrogen Receptors = assay: Estrogen receptors of established DMBA-induced mammary tumors; type: in vivo, female Sprague Dawley rats; conditions: N 7
Method: (§1) Estrogen and progesterone receptors were measured in the OSU Hormone Receptor Laboratory by the multipoint dextran-coated charcoal method as previously described in Schuller et al., Estrogen and progesterone receptors in head and neck cancer, Arch. […] The data of specific binding were analyzed by Scatchard, The Attraction of proteins for small molecules and ions, Ann. N.Y. Acad. Sci. 51:660-672 (1949), plots to determine the equilibrium dissociation constant (Kd) and binding capacity expressed as femtomoles of estradiol or progesterone (R-5020) specifically bound per mg of cytosol protein for estrogen and progesterone receptors respectively. Cytosol protein concentrations were determined by the procedure of Lowry et al., Protein measurement with the folin phenol reagent, J. Biol. Chem. 193:265-275 (1951).

Progesterone Receptors = assay: Progesterone receptors of established DMBA-induced mammary tumors; type: in vivo, female Sprague Dawley rats; conditions: N 7
Method: as §1

[4] = Body weight gain of rats, Example I (FIG. 4); type: in vivo, female Sprague Dawley rats; conditions: prolonged feeding of diets containing CGT and HPR
[5] = tested on: 7,12-dimethylbenz(a)anthracene-induced mammary tumorigenesis; conditions: cited from earlier work
chemical carcinogenesis = conditions: sustained release dietary form; liver, lung, skin, mammary gland; cited from earlier work
sex hormones = conditions: CGT diet; anti-promotional effect; cited from earlier work
[6] = as calcium glucarate; cited from earlier work
[7] = CGT-supplemented diet; cited from earlier work
MCF-7 cells = assay: Growth of MCF-7 cells (GL, HPR, GL and HPR), Table II; type: cell-based, human; conditions: 5 days; for No. of viable cells: mean ± SE of three experiments
From the text: The values shown are the mean +/- ISE for three experiments counted in triplicates. The numbers in parenthesis indicate the number of free floating (mostly non viable) cells in the media.

[8] = tested on: established DMBA-induced mammary tumors; assay: HPR on already established DMBA-induced mammary tumors; type: in vivo, female Sprague Dawley rats
Method: When higher doses (2 mmol/kg diet) of HPR were used, growth arrest was followed within 5 to 10 days by 30% regression of the DMBA-induced mammary tumors. Also, HPR (0.1 uM) inhibited the […] growth of the human breast cancer cell line (MCF-7) to 50% of the control within 7 days.

[9] = tested on: established mammary tumors; assay: HPR on established mammary tumors in CD8 F1 mice; type: in vivo; conditions: CD8 F1 mice with established mammary tumors
[10] = rat, in vivo; cited from earlier work

Q: For “2,4-di-O-acetyl-D-glucaro-1,4-lactone [reference compound]”, which inhibition of beta-glucuronidase (beta-glucuronidase) is on record?
A: effective as inhibitors of beta-glucuronidase

Q: Which “Tumor Incidence” value ([1]; 1% CGT in diet) does the source give for `O=C([O-])[C@@H](O)[C@@H](O)[C@H](O)[C@@H](O)C(=O)[O-].[Ca+2]` [CGT, calcium glucarate] here?
A: 55

Q: What about the “Tumors Per Rat” value ([1]; 1% CGT in diet) of the same compound?
A: 1.0

Q: What about the “No. of Rats with Tumors” value ([1]; 1% CGT in diet) of the same compound?
A: 11

Q: And the “Total No. Tumors” value ([1]; 1% CGT in diet)?
A: 20

Q: And the “Tumor Incidence” value ([1]; 2% CGT in diet)?
A: 55

Q: What about the “Tumors Per Rat” value ([1]; 2% CGT in diet) of the same compound?
A: 1.0

Q: What about the “No. of Rats with Tumors” value ([1]; 2% CGT in diet) of the same compound?
A: 11

Q: And the “Total No. Tumors” value ([1]; 2% CGT in diet)?
A: 20

Q: What about the “Tumor Incidence” value ([1]; 4% CGT in diet) of the same compound?
A: 35

Q: And the “Tumors Per Rat” value ([1]; 4% CGT in diet)?
A: 0.5

Q: What about the “No. of Rats with Tumors” value ([1]; 4% CGT in diet) of the same compound?
A: 7

Q: And the “Total No. Tumors” value ([1]; 4% CGT in diet)?
A: 10

Q: And the “inhibition of tumor incidence” value ([1]; CGT (4%))?
A: 50-60%

Q: And the inhibition of tumors/rat ([1]; CGT (4%))?
A: 50-65%

Q: And the “minimum dosage used alone consistent with maximum inhibition of carcinogenesis” value ([1]; CGT alone, 4 gm/100 gm of chow diet)?
A: ~4 gm %

Q: What about the “increase of tumor size” value ([2]; CGT 64 mmol/kg) of the same compound?
A: 55%

Q: And the “decrease of mammary tumor size” value ([2]; CGT 128 mmol/kg)?
A: 25%

Q: What about the tumor growth [2] of the same compound?
A: continued to grow

Q: And the “effect on tumor growth/development when fed separately” value [2]?
A: enhanced tumor growth; also recorded: no observable inhibitory effect and indeed enhanced tumor development

Q: And the “Final Weight” value ([3]; CGT (2%))?
A: 415 +/- 15 gm

Q: What about the “Initial Weight” value ([3]; CGT (2%)) of the same compound?
A: 401 +/- 10 gm

Q: What about the “Final Weight” value ([3]; CGT (4%)) of the same compound?
A: 429 +/- 26 gm

Q: And the “Initial Weight” value ([3]; CGT (4%))?
A: 404 +/- 22 gm

Q: And the “Estrogen Receptors” value (Estrogen Receptors; CGT (2%))?
A: 42.7 +/- 7.0 Fmoles/mg Protein

Q: And the “Estrogen Receptors” value (Estrogen Receptors; CGT (4%))?
A: 44.3 +/- 5.9 Fmoles/mg Protein

Q: And the “Progesterone Receptors” value (Progesterone Receptors; CGT (2%))?
A: 84.4 +/- 17.0 Fmoles/mg Protein

Q: What about the “Progesterone Receptors” value (Progesterone Receptors; CGT (4%)) of the same compound?
A: 82.0 +/- 16.0 Fmoles/mg Protein

Q: And the “effect on weight gain” value [4]?
A: did not affect weight gain

Q: And the “tumor induction relative to controls” value ([5]; 4% CGT diet from two weeks after carcinogen, by 28 weeks)?
A: 30 % of that in the controls

Q: And the regression of tumors ([5]; chow diet supplemented with CGT, some tumors)?
A: underwent regression

Q: What about the inhibition of beta-glucuronidase (beta-glucuronidase) of the same compound?
A: effective as inhibitors of beta-glucuronidase

Q: And the chemopreventive activity (chemical carcinogenesis)?
A: potent chemopreventative agent

Q: And the “steady-state level of sex hormones” value (sex hormones)?
A: reduction in the steady-state level of sex hormones

Q: What about the “dietary dosage that is non-toxic” value [6] of the same compound?
A: up to 10 % in the diet

Q: What about the “food quantity and weight gain” value [7] of the same compound?
A: identical to those on the normal chow diet

Q: Which “free floating (mostly non viable) cells, % of control” value (MCF-7 cells; GL (10^-3 M)) does the source give for `O=C(O)[C@@H](O)[C@H]1OC(=O)[C@H](O)[C@H]1O` [GL, D-glucaro-1,4-lactone] here?
A: 7 % of control

Q: What about the “number of free floating (mostly non viable) cells” value (MCF-7 cells; GL (10^-3 M)) of the same compound?
A: 4560

Q: What about the “No. of viable cells” value (MCF-7 cells; GL (10^-3 M)) of the same compound?
A: 32560 ± 1800

Q: What about the “free floating (mostly non viable) cells, % of control” value (MCF-7 cells; GL (10^-4 M)) of the same compound?
A: 6 % of control

Q: And the “number of free floating (mostly non viable) cells” value (MCF-7 cells; GL (10^-4 M))?
A: 3440

Q: And the “No. of viable cells” value (MCF-7 cells; GL (10^-4 M))?
A: 49480 + 3160

Q: And the inhibition of beta-glucuronidase (beta-glucuronidase)?
A: potent inhibitor of beta-glucuronidase

Q: For `CC1=C(/C=C/C(C)=C/C=C/C(C)=C/C(=O)Nc2ccc(O)cc2)C(C)(C)CCC1` [HPR, N-(4-hydroxyphenyl) retinamide], which “Tumor Incidence” value ([1]; 0.75 mmol/kg diet HPR) is on record?
A: 60

Q: And the “Tumors Per Rat” value ([1]; 0.75 mmol/kg diet HPR)?
A: 1.0

Q: And the “No. of Rats with Tumors” value ([1]; 0.75 mmol/kg diet HPR)?
A: 12

Q: What about the “Total No. Tumors” value ([1]; 0.75 mmol/kg diet HPR) of the same compound?
A: 20

Q: And the “inhibition of tumor incidence” value ([1]; HPR (1.5 mmol))?
A: 50-60%

Q: And the inhibition of tumors/rat ([1]; HPR (1.5 mmol))?
A: 50-65%

Q: And the “minimum dosage used alone consistent with maximum inhibition of carcinogenesis” value ([1]; HPR alone, in diet)?
A: 1.0 to 1.5 mmol/kg

Q: What about the “increase of tumor size” value ([2]; HPR 0.75 mmol/kg) of the same compound?
A: 70%

Q: And the “decrease of mammary tumor size” value ([2]; HPR 2 mmol/kg)?
A: 15%

Q: And the tumor growth [2]?
A: continued to grow

Q: What about the “effect on tumor growth/development when fed separately” value [2] of the same compound?
A: no observable inhibitory effect and indeed enhanced tumor development

Q: And the “free floating (mostly non viable) cells, % of control” value (MCF-7 cells; HPR (5 × 10^-8 M))?
A: 7 % of control

Q: And the “number of free floating (mostly non viable) cells” value (MCF-7 cells; HPR (5 × 10^-8 M))?
A: 4160

Q: What about the “No. of viable cells” value (MCF-7 cells; HPR (5 × 10^-8 M)) of the same compound?
A: 33680 ± 2627

Q: And the “inhibition of tumor growth” value ([8]; 1.0 mmol/kg diet daily, within 10 days)?
A: 80-90%

Q: What about the tumor growth ([8]; 2 mmol/kg diet) of the same compound?
A: growth arrest

Q: And the “regression of DMBA-induced mammary tumors” value ([8]; 2 mmol/kg diet, within 5 to 10 days after growth arrest)?
A: 30%

Q: What about the “inhibition of tumor growth” value [9] of the same compound?
A: 50%

Q: What about the “Final Weight” value ([3]; HPR (0.75 mmol/kg)) of the same compound?
A: 421 +/- 14 gm

Q: What about the “Initial Weight” value ([3]; HPR (0.75 mmol/kg)) of the same compound?
A: 409 +/- 18 gm

Q: And the “Final Weight” value ([3]; HPR (2.0 mmol/kg))?
A: 413 +/- 10 gm

Q: And the “Initial Weight” value ([3]; HPR (2.0 mmol/kg))?
A: 401 +/- 13 gm

Q: And the “Estrogen Receptors” value (Estrogen Receptors; HPR (2.0 mmol/kg))?
A: 50.6 +/- 8.4 Fmoles/mg Protein

Q: What about the “Progesterone Receptors” value (Progesterone Receptors; HPR (0.75 mmol/kg)) of the same compound?
A: 90.7 +/- 18.0 Fmoles/mg Protein

Q: And the “Progesterone Receptors” value (Progesterone Receptors; HPR (2.0 mmol/kg))?
A: 89.3 +/- 13.7 Fmoles/mg Protein

Q: And the “effect on weight gain” value [4]?
A: did not affect weight gain

Q: And the tissue trophism [10]?
A: displays trophism for the mammary gland

Q: Which inhibition of beta-glucuronidase (beta-glucuronidase) does the source give for `O=C(O)[C@@H](O)[C@@H](O)[C@H](O)[C@@H](O)C(=O)[O-].[K+]` [potassium hydrogen glucarate, reference compound] here?
A: effective as inhibitors of beta-glucuronidase

From US5008291A, “Method and composition for achieving chemotherapeutic activity” (Ohio State University Research Foundation, priority 1989, dated 1991)
